Entries after “also recorded” stand apart in the source; their conditions may differ.
Tests used:
Type in all cases: in vivo, rat
[1] = system: unilateral 6-OHDA-lesioned rats; experiment: Rearing counts in actometers, monotherapy (without L-Dopa)
Description: (§1) To protect norepinephrinergic neurons, animals were administered imipramine HCl (Sigma) 15 minutes before surgery. They were subsequently anesthetized with ketamine (Ceva, 75 mg/kg) and xylazine (Bayer, 10 mg/kg) and placed in stereotaxic frame (David Kopf Instrument). 6-OHDA was injected into the right ascending medial forebrain bundle at the following coordinates (in mm) relative to bregma and surface of the dura, AP = −3.5, ML = −1.5, DV = −8.7. Each rat received one injection of 6-OHDA (4 µg/µl) over a period of 5 minutes (0.5 µl/min) for a total of 10 µg per rat. Animals were monitored for 3 weeks to ensure full recovery and habituation to the environment and experimenters.
(§2) On day 21 post surgery, all rats were challenged with a small dose of subcutaneously administered apomorphine (Sigma, 0.05 mg/kg). Rats showing more than 90 contralateral rotations (360°) over a 45-minute recording period were included in the study. […] For each experiment, rats were allocated to the different experimental groups in order to get the same mean level of basal activity measured at the apomorphine challenge amongst the different experimental groups.
(§3) Drug-naïve separate rats were tested individually in clear acrylic chambers (LE8811 IR, Panlab). Locomotion was detected and measured by 16 infrared light-beam sensors located on each side of the enclosure at a height of 3 cm. Sensors were spaced such that the light beams formed a matrix of 15×15 squares over the surface. Activity counts were recorded on a computer and Acti-Track software (Actitrack, Panlab) was used to convert raw data into “distance traveled” and “rearing counts” for analysis as relevant dependent variables.
(§4) Six different combinations of A2A/NR2B antagonists were tested without L-Dopa. For each combination, there were four different procedures: vehicle only; A2A antagonist followed by vehicle; vehicle followed by the NR2B antagonist and A2A antagonist followed by the NR2B antagonist. The drugs, doses and combinations are described in Table 3. After drug administration, rats were placed in actometers (open-field) for monitoring the general level of motor activity (distance traveled and rearing counts).
(§5) Before undertaking the study, each A2A and NR2B antagonist was tested individually. The doses were selected on the basis of preliminary dose-response curves performed separately for each drug and submaximal dose (i.e. response observed is not at its maximal level) of each drug was selected for the combination studies. The two drugs were administered separately via an intraperitoneal (ip) injection with a 2-minute interval between the two drugs. Five minutes after the second injection, animals were placed in the testing cage for behavioural recording. Due to formulation and exposure issues, Tozadenant and Radiprodil had to be administered orally and therefore recording was started 60 minutes post dosing at this corresponds to maximum plasma concentrations. Eight drug-naïve animals were used for each of the four procedures; 32 in total for each combination. All behavioral experiments were conducted between 8.00 AM and 2.00 PM at the latest. Preliminary pharmacokinetic assays investigated the plasma and brain disposition of selected drugs administered alone or in combination (ie. Tozadenant/Radiprodil, and Sch-58261/Co-101244; 3 animals per group). Tozadenant and Radiprodil were measured in samples obtained 60 minutes after single oral administration at 30 mg/kg. Sch-58261 and Co-101244 were measured in samples collected 90 min after single intraperitoneal administration at 3 mg/kg.
(§6) The effects of A2A and NR2B antagonists on the level of motor activity (i.e. distance traveled and rearing counts) were assessed with three-way mixed ANOVA, combining the A2A receptor antagonist (2 levels, vehicle and the A2A drug) and the NR2B antagonist (2 levels, vehicle and the NR2B drug) as between-group factors with the time as within-subjects factor (6 or 9 levels). […]

[2] = system: unilateral 6-OHDA-lesioned rats; experiment: Distance traveled in actometers, monotherapy (without L-Dopa)
Description: as §1, §2, §3, §4, §5, §6

[3] = system: unilateral 6-OHDA-lesioned rats; experiment: L-Dopa-induced contralateral rotations in rotometers, add-on therapy; settings: add-on to L-Dopa 25 mg/kg ip; for Contralateral rotations, drugs alone vs vehicle, time for which significant: 10-min intervals, 120 min recording; for Time for which the drug given separately was active in increasing or prolonging the L-Dopa effect on contralateral rotations: each given separately
Description: as §1, §2
The rats tested one week earlier for general activity (actometers) were once again placed in clear acrylic individual chambers (50×45 cm) with the same treatment (drug and dose) than that previously received plus L-Dopa. Eight chambers were placed on a level, clear glass bottom, held by a robust frame, and were subdivided into four individual test cages of 25×22 cm. A removable acrylic plate served as a lid.
Rotational behaviour was recorded using a home-made computerized system. Rats were fixed in a harness and linked to mechanical sensors connected directly to a computer. Each 360° clock-wise or counter clock-wise turn was automatically recorded for up to 120 minutes at the maximum. Throughout the experiments, rats were allocated to individual test cages.
Four different combinations were administered as add-on treatment to a low active dose of L-Dopa (25 mg/kg, ip) without any dopa decarboxylase inhibitor to avoid any additional pharmacokinetic interaction. The doses of the compounds were selected on the basis of preliminary dose-response curves performed separately for each drug. To avoid ceiling effect with L-Dopa, only submaximal doses of each drug were selected for testing (as it was done previously for monotherapy). Eight L-Dopa naïve animals were tested for each of the four pharmacological condition: vehicle and L-Dopa (25 mg/kg); A2A antagonist followed by vehicle and L-Dopa; vehicle followed by NR2B antagonist and L-Dopa; A2A antagonist followed by NR2B and L-Dopa. Due to the dominance of the L-Dopa-effect on the lesioned striatum, the unilateral 6-OHDA-lesioned rats rotated after the drugs administration and behavioral activity was recorded in rotometers (i.e. level of contralateral rotations).
All drugs were administered i.p. 25 minutes before behavioural recording, except for the Tozadenant and Radiprodil combination which was administered orally 60 minutes before behavioural recording. As Radiprodil was administered orally, L-Dopa was given 45 minutes after the Radiprodil injection whereas for the other combinations L-Dopa was given 15 minutes after the NR2B drug. The drugs, the doses and the combinations given in co-administration to L-Dopa are described in Table 4 .
The impact of treatment with A2A or NR2B receptor antagonists, given alone or in combination, on the effect of L-Dopa on contralateral rotations was also analysed with a three-way mixed ANOVA. The ANOVA included the A2A and the NR2B receptor antagonists (both, 2 levels, vehicle and the drug) as between-group factors combined with time (12 levels) as within-subjects factor. […] The ability of the combination to increase and prolong the activity of L-Dopa was also explored. Consequently, drug effects were analyzed for every 10-min time interval. […]

[4] = Preladenant 0.1 mg/kg ip, Radiprodil 1 mg/kg ip
[5] = Tozadenant 30 mg/kg po, Radiprodil 3 mg/kg po
[6] = Preladenant 0.03 mg/kg ip, Radiprodil 0.3 mg/kg ip
[7] = Sch-58261 1 mg/kg ip, Co-101244 1 mg/kg ip
[8] = Sch-58261 1 mg/kg ip, Merck 22 1 mg/kg ip
[9] = Sch-58261 0.3 mg/kg ip, Co-101244 1 mg/kg ip

`O=C(Nc1ccc2[nH]c(=O)oc2c1)C(=O)N1CCC(Cc2ccc(F)cc2)CC1` [Radiprodil] was tested, and the “Rearing counts, drugs alone vs vehicle, p (Newman-Keuls)” value [1, 4] was “Radiprodil, not significant”, the “Rearing counts, drugs main effect, p (three-way mixed ANOVA)” value (“Rearing counts, drugs main effect, p” below) [1, 4] was “p<0.001” and the “Rearing counts, drugs × time effect, p (three-way mixed ANOVA)” value (from here on “Rearing counts, drugs × time effect, p”) [1, 4] was “p<0.01”. The “Rearing counts, drugs alone vs vehicle, p (Newman-Keuls)” value [1, 5] was “Not significant”, the “Rearing counts, drugs main effect, p” value [1, 5] was “p<0.01” and the “Rearing counts, drugs × time effect, p” value [1, 5] was “p<0.001”. The “Rearing counts, drug alone in comparison to vehicle rats” value ([1]; drug administered alone) was “not”, the “Distance traveled, drugs main effect, p (three-way mixed ANOVA)” value (“Distance traveled, drugs main effect, p” for short) [2, 4] was “p<0.001” and the “Distance traveled, drugs × time effect, p (three-way mixed ANOVA)” value [2, 4] was “p<0.001”. The “Distance traveled, drugs alone vs vehicle, p (Newman-Keuls)” value [2, 5] was “not all drugs when administered alone improved distance traveled; also recorded: Not significant”, the “Distance traveled, drugs main effect, p” value [2, 5] was “p<0.01” and the “Distance traveled, drugs × time effect, p (three-way mixed ANOVA)” value [2, 5] was “p<0.001”. The “Contralateral rotations, drugs alone vs vehicle, p (planned contrasts on each 10-min interval)” value [3, 6] was “Not significant”, the “Contralateral rotations, drugs main effect, p (three-way mixed ANOVA)” value [3, 6] was “Not significant” and the “Contralateral rotations, drugs × time effect, p (three-way mixed ANOVA)” value [3, 6] was “p<0.01”. For the same compound, the “Contralateral rotations, drugs alone vs vehicle, p (planned contrasts on each 10-min interval)” value [3, 5] was under 0.05, the “Contralateral rotations, drugs main effect, p (three-way mixed ANOVA)” value [3, 5] was “p<0.01” and the “Contralateral rotations, drugs × time effect, p (three-way mixed ANOVA)” value [3, 5] was “p<0.001”. The “Contralateral rotations, drugs alone vs vehicle, time for which significant” value [3, 5] was 20 ′ and the “Time for which the drug given separately was active in increasing or prolonging the L-Dopa effect on contralateral rotations” value [3, 5] was 20 min.

In the case of `Nc1nc2c(cnn2CCc2ccccc2)c2nc(-c3ccco3)nn12` [Sch-58261], the “Rearing counts, drugs alone vs vehicle, p (Newman-Keuls)” value [1, 7] is reported as “Both p<0.05”, the “Rearing counts, drugs main effect, p” value [1, 7] is reported as “p<0.001” and the “Rearing counts, drugs × time effect, p” value [1, 7] is reported as “p<0.001”. For the same compound, the “Rearing counts, drugs alone vs vehicle, p (Newman-Keuls)” value [1, 8] was “Sch-58261 p<0.05”, the “Rearing counts, drugs main effect, p” value [1, 8] was “p<0.001” and the “Rearing counts, drugs × time effect, p” value [1, 8] was “p<0.001”. The “Distance traveled, drugs alone vs vehicle, p (Newman-Keuls)” value [2, 7] was “Both p<0.01”, the “Distance traveled, drugs main effect, p” value [2, 7] was “p<0.001” and the “Distance traveled, drugs × time effect, p (three-way mixed ANOVA)” value [2, 7] was “p<0.001”. For the same compound, the “Distance traveled, drugs alone vs vehicle, p (Newman-Keuls)” value [2, 8] was “Both p<0.01”, the “Distance traveled, drugs main effect, p” value [2, 8] was “p<0.001” and the “Distance traveled, drugs × time effect, p (three-way mixed ANOVA)” value [2, 8] was “Not significant”. The “Distance traveled, drug alone in comparison to vehicle-treated controls” value ([2]; drug administered alone) was “significant increase”, the “Contralateral rotations, drugs main effect, p (three-way mixed ANOVA)” value [3, 9] was “p<0.05” and the “Contralateral rotations, drugs × time effect, p (three-way mixed ANOVA)” value [3, 9] was “p<0.001”.

For `COc1ccc(N2CCOCC2)c2sc(NC(=O)N3CCC(C)(O)CC3)nc12` [Tozadenant], the “Rearing counts, drugs alone vs vehicle, p (Newman-Keuls)” value [1, 5] was “exception; also recorded: Not significant”, the “Rearing counts, drugs main effect, p” value [1, 5] was “p<0.01” and the “Rearing counts, drugs × time effect, p” value [1, 5] was “p<0.001”. The “Distance traveled, drugs alone vs vehicle, p (Newman-Keuls)” value [2, 5] was “not all drugs when administered alone improved distance traveled; also recorded: Not significant”, the “Distance traveled, drugs main effect, p” value [2, 5] was “p<0.05” and the “Distance traveled, drugs × time effect, p (three-way mixed ANOVA)” value [2, 5] was “p<0.001”. For the same compound, the “Contralateral rotations, drugs alone vs vehicle, p (planned contrasts on each 10-min interval)” value [3, 5] was under 0.05, the “Contralateral rotations, drugs main effect, p (three-way mixed ANOVA)” value [3, 5] was “p<0.001” and the “Contralateral rotations, drugs × time effect, p (three-way mixed ANOVA)” value [3, 5] was “p<0.001”. The “Contralateral rotations, drugs alone vs vehicle, time for which significant” value [3, 5] was 80 ′ and the “Time for which the drug given separately was active in increasing or prolonging the L-Dopa effect on contralateral rotations” value [3, 5] was 80 min.

Source: article PMC4267740, “Unprecedented Therapeutic Potential with a Combination of A2A/NR2B Receptor Antagonists as Observed in the 6-OHDA Lesioned Rat Model of Parkinson's Disease” (PLoS ONE, 2014)
